Results from paper PMC3585395, “Material Basis of Chinese Herbal Formulas Explored by Combining Pharmacokinetics with Network Pharmacology” (PLoS ONE, 2013).
Read-outs that look alike come from different tables or passages of the source.

Experiment: in vivo
Type: in vivo, Sprague–Dawley rats
Conditions: for Detection in rat plasma after D7 administration: LC-MS/MS, sampling up to 24 h; for AUC / Cmax / MRT / Tmax / half-life / AUC(0-t) / CL/F / Vd/F: male, Sprague-Dawley, rat, in vivo; for Vd/F: read-out: Vz/F
Experimental: Male Sprague–Dawley rats (∼250 g) purchased from Sino-British Sippr/BK Lab Animal, Ltd. (Shanghai, China) were housed in air-conditioned animal quarters with alternating 12 h light/dark cycles at a room temperature of 22°C±2°C and a relative humidity of 50%±10%. Commercial rat chow and water were given ad libitum. The animal studies were approved by the Review Committee of Animal Care and Use at Longhua Hospital. The rats were fasted overnight (∼12 h) and had free access to water throughout the experimental period. Five rats were given a single oral dose of D7 at 4 mL/kg, which was designed based on the clinical dosage for human. Blood samples (∼150 µL) were collected via a jugular vein catheter from non-restrained, non-sedated animals into heparinized tubes before and at 0.083, 0.25, 0.5, 1, 2, 3, 4, 6, 8, 10, and 24 h after administration. After centrifugation at 4000×g for 10 min at 4°C, duplicates of 25 µL of the plasma samples were obtained and were immediately stored at −80°C until analysis. After the experiments, the rats were sacrificed with ether anesthesia.
For protein precipitation, 75 µL of MeOH were added to 25 µL of plasma samples. After vortexing for 2 min and centrifugation for 5 min at 13000×g at 4°C, 80 µL aliquots of the supernatant liquid were transferred into autosampler vials for LC-MS/MS analysis.
The LC-MS/MS system consisted of an Agilent HPLC 1200 series system and a CTC autosampler coupled with an API 4000 triple-quadrupole mass spectrometer equipped with a TurboIonSpray ion source. The LC-MS/MS system was controlled using the Analyst 1.4.2 software, which also acquired and processed the data.
LC separation was performed on a 5 µm Agel Luna C18 (50 mm×2.1 mm, i.d.) at room temperature with a 2 µm filter used before the analytical column. The LC mobile phase was H2O containing 0.1% formic acid (A) and MeOH (B) at a flow rate of 0.30 mL/min. A gradient elution program was used as following: 0→2.5 min, B% 60→90; 2.5→2.6 min, B% 90→60; and 2.6→4 min, B% 60→60. The injection volume was 10 µL and the temperature of the autosampler was set at 4°C to keep the samples stable during the analysis.
The tuning solutions (10 µg/mL) of the individual analytes were prepared by diluting the corresponding primary stock solutions with 50% MeOH. The tuning solutions were delivered at 5.0 µL/min using a syringe pump and combined through a PEEK tee-connector with the mobile phase delivered at 0.3 mL/min with the LC pump. The instrumental parameters of the MS spectrometers in positive ion ESI mode were optimized to achieve maximum ionization of the analyte molecules and the generation of characteristic fragment ions. […] The scan time for each pair was set to 50 ms. The operating parameters of the mass spectrometer included compound-dependent and source-dependent considerations. The optimized source-dependent parameters consisted of the flow rates of curtain gas, gas 1, gas 2, collision gas (CAD), capillary temperature (TEM), and ion spray voltage. The compound-dependent parameters for the test compounds included the declustering potential (DP), entrance potential (EP), collision energy (CE), and collision cell exit potential (CXP).
Standard curves, intra-batch accuracy, and precision for the quantification of the 15 compounds in the rat plasma samples were constructed similarly. The accuracy was measured as the difference between the nominal value and the measured value, expressed as a percentage of the nominal value. Precision was expressed as the coefficient of variation (CV), i.e., the standard deviation divided by the mean multiplied by 100.
The plasma concentration–time data for D7 were analyzed with the WinNonlin 5.2.1 software (Pharsight, Mountain View, CA, USA) using a non-compartmental model. The peak plasma concentration (C max) and the corresponding time (T max) were directly obtained from the concentration data.

[1] = SD rats, single oral D7 4 mL/kg
[2] = SD rats, single oral D7 4 mL/kg, plasma
[3] = SD rats, single oral D7 4 mL/kg, plasma, non-compartmental, read-out: T1/2 (converted)
[4] = SD rats, single oral D7 4 mL/kg, plasma, read-out: AUC0–24 h
[5] = SD rats, single oral D7 4 mL/kg, read-out: CL/F (converted)

Row | SMILES | Detection in rat plasma after D7 administration [1] | AUMCall [2] | AUMClast [2] | AUC [2] | Cmax [2] | MRT [2] | Tmax [2] | half-life [3] | AUC(0-t) [4] | CL/F [5] | Vd/F [1] | CL/F (po) | half-life (po, T1/2) | T1/2 (SD rats, single oral D7 4 mL/kg, plasma, non-compartmental) | half-life (po, SD rats, single oral D7 4 mL/kg, plasma, non-compartmental, read-out: T1/2 (converted)) | AUC(0-t) (SD rats, single oral D7 4 mL/kg, plasma, read-out: AUClast)
1 | COCC12CN(C)C3C4C(OC)C1C3(C(OC)CC2O)C1CC2(O)C(OC)C(O)C4(OC(C)=O)C1C2OC(=O)c1ccccc1 (stereo not shown) [mesaconitine] | not detected | – | – | – | – | – | – | – | – | – | – | – | – | – | – | –
2 | CCN1CC2(COC)C(O)CC(OC)C34C5CC6(O)C(OC)C(O)C(O)(C5C6OC(=O)c5ccccc5)C(C(OC)C23)C14 (stereo not shown) [Benzoylaconitine, benzoylaconine] | not detected | – | – | – | – | – | – | – | – | – | – | – | – | – | – | –
3 | CCN1C[C@]2(COC)[C@H](O)C[C@H](OC)[C@@]34[C@@H]5C[C@@]6(O)[C@H](OC(=O)c7ccccc7)[C@@H]5[C@@](OC(C)=O)([C@@H]([C@H](OC)[C@H]23)[C@@H]14)[C@@H](O)[C@@H]6OC [aconitine] | not detected | – | – | – | – | – | – | – | – | – | – | – | – | – | – | –
4 | O=c1ccc2cc3ccoc3cc2o1 [Psoralen, psoralen] | – | 74305±51503 h·h·ng/mL | 69918±49475 h·h·ng/mL | 10200 ± 6000 ng·h/mL | 929 ± 431 ng/mL | 6.71 ± 0.79 h | 6 h | 3.18 ± 0.24 h | 9980 ± 5960 ng·h/mL | 1.39 mL/min/kg | 0.384 ± 0.227 L/kg | – | – | – | – | –
5 | O=c1ccc2ccc3occc3c2o1 [Isopsoralen, isopsoralen] | measureable | 168803±119110 h·h·ng/mL | 150025±99963 h·h·ng/mL | 21000 ± 12100 ng·h/mL | 2240 ± 824 ng/mL | 7.13 ± 0.66 h | 6 h | 3.53 ± 1.03 h | 20400 ± 11500 ng·h/mL | 1.1 mL/min/kg | 0.308 ± 0.181 L/kg | – | – | – | – | –
6 | COC[C@@]12CC[C@H](OC)[C@]34C(C([C@H](OC)[C@H]13)[C@]1(OC(C)=O)[C@H]3[C@@H](OC(=O)c5ccccc5)[C@](O)(C[C@H]34)[C@@H](OC)[C@@H]1O)N(C)C2 [hypaconitine] | not detected | – | – | – | – | – | – | – | – | – | – | – | – | – | – | –
7 | COc1c2occc2cc2ccc(=O)oc12 [Xanthotoxin, xanthotoxin] | – | 1445±719 h·h·ng/mL | 667±270 h·h·ng/mL | 209 ± 89.5 ng·h/mL | 31.7 ± 9.55 ng/mL | 4.06 ± 0.41 h | 1 h | – | 162 ± 64.7 ng·h/mL | – | 3.69 ± 1.52 L/kg | 9.6 mL/min/kg | 4.56 ± 0.71 h | – | – | –
8 | CC(C)=CCc1cc2c(cc1O)oc(=O)c1c3ccc(O)cc3oc21 [Psoralidin, psoralidin] | measureable | 2240±462 h·h·ng/mL | 329±44 h·h·ng/mL | 64.5 ± 8.46 ng·h/mL | 2.57 ± 0.53 ng/mL | 10.3 ± 0.39 h | 0.5 h | – | – | 2.88 mL/min/kg | 5.87 ± 0.395 L/kg | – | – | 23.7 ± 1.7 h | ~24 h | 31.9 ± 3.32 ng·h/mL
9 | COc1c2ccoc2cc2oc(=O)ccc12 [Bergapten, bergapten] | measureable | 1270±958 h·h·ng/mL | 924±716 h·h·ng/mL | 158 ± 77.9 ng·h/mL | 20.5 ± 7.22 ng/mL | 5.65 ± 2.16 h | 1 h | 4.14 ± 0.7 h | 143 ± 73.2 ng·h/mL | 8.07 mL/min/kg | 2.93 ± 1.57 L/kg | – | – | – | – | –
